Some test systems named below: SF-295 CNS; UACC-62 melanoma; SN12C renal; SNB-19 CNS; OVCAR-5 ovarian; PC-3 prostate; MCF7 breast; DU-145 prostate; HS 578T breast; RXF 393 renal; MDA-MB-231 breast.
What all share (assay): NCI anticancer screen, dose series, 48 h

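Where inhibition never reached the appropriate level, the endpoint shown equals the highest concentration tested. Otherwise, values were interpolated linearly from a five-concentration, 48-hour dose response in 96-well plates. TGI marks complete inhibition of growth.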

Take `CSc1ccc2c(cc1=O)[C@@H](NC(=O)c1cc(O)c(O)c(O)c1)CCc1cc(O)c(O)c(O)c1-2`: the TGI with SF-295 CNS was 43.6 µM; in the assay on UACC-62 melanoma, 36.8 µM; with SN12C renal, 34.5 µM; in the assay with SNB-19 CNS it was greater than 100 µM; with OVCAR-5 ovarian, 31.3 µM.
As to `CCCCCCc1cc2cc(C(=O)Nc3ccc(F)cc3)c(=N)oc2cc1O`, the TGI in the assay with PC-3 prostate is 13.5 µM; in the assay with SF-295 CNS, greater than 100 µM; in the assay with MCF7 breast, 33.7 µM; in the assay on UACC-62 melanoma it was 8.7 µM; in the assay with SNB-19 CNS, 25.3 µM; with OVCAR-5 ovarian it was greater than 100 µM. This compound gave a TGI in the assay on DU-145 prostate of 6.78 µM.
With `COc1ccc(C2c3cc4c(cc3OC(N3CCOCC3)C2C)OCO4)cc1` (stereo not given), the TGI in the assay on HS 578T breast was 63 µM; in the assay with PC-3 prostate, greater than 100 µM; in the assay on SF-295 CNS, 67.5 µM; in the assay on MCF7 breast it was greater than 71.5 µM; with UACC-62 melanoma it was greater than 95.6 µM; in the assay with SN12C renal, greater than 100 µM. Besides, the TGI is greater than 96.7 µM in the assay with SNB-19 CNS, 63.3 µM in the assay with RXF 393 renal, greater than 87.5 µM in the assay on OVCAR-5 ovarian and greater than 100 µM in the assay with DU-145 prostate.
`C1=NC(N(Cc2ccccc2)Cc2ccccc2)N(Cc2ccccc2)N1` (stereo not given): the TGI in the assay with SF-295 CNS amounted to 29.6 µM; in the assay with UACC-62 melanoma, 27.2 µM; in the assay on SN12C renal, 34.1 µM; with SNB-19 CNS, 55.3 µM; with RXF 393 renal, 30.4 µM; with OVCAR-5 ovarian it was 42 µM.
For the compound `COc1ccc(N2C(=O)C(=O)N(c3ccc(N=Nc4ccccc4)cc3)C2=S)cc1`, the TGI with HS 578T breast is greater than 100 µM; in the assay on MDA-MB-231 breast, 41.5 µM; in the assay on PC-3 prostate, 33.8 µM; with SF-295 CNS, 35.4 µM; with UACC-62 melanoma it was 31.6 µM; in the assay on SN12C renal, 33.2 µM. Besides, the TGI is 53.4 µM in the assay on SNB-19 CNS, 32.4 µM in the assay with RXF 393 renal, 44.6 µM with OVCAR-5 ovarian and 34.3 µM in the assay with DU-145 prostate.
Regarding `NC1(CCNC(=O)c2ccccc2)CCN(C(=O)c2ccccc2)CC1`, the TGI in the assay on HS 578T breast, in the assay with PC-3 prostate, with SF-295 CNS, in the assay on MCF7 breast, in the assay with UACC-62 melanoma and in the assay on SN12C renal was greater than 100 µM in each case. Besides, the TGI in the assay on SNB-19 CNS, in the assay on RXF 393 renal, in the assay on OVCAR-5 ovarian and in the assay on DU-145 prostate was greater than 100 µM throughout.
Consider `CC(=O)OCCOCNC(=S)N/N=C/c1ccc([N+](=O)[O-])s1`, for which the TGI in the assay on SF-295 CNS, in the assay with UACC-62 melanoma, in the assay on SN12C renal, with SNB-19 CNS, in the assay on RXF 393 renal and in the assay on OVCAR-5 ovarian was greater than 100 µM throughout.
As for `O=c1[nH]nc(Cc2ccc(Cl)cc2)n1/N=C/c1cccs1`, the TGI with MDA-MB-231 breast is 49.7 µM; in the assay on PC-3 prostate, greater than 100 µM; in the assay with SF-295 CNS, 44 µM; with MCF7 breast, greater than 100 µM; with UACC-62 melanoma it was greater than 100 µM; with SN12C renal, greater than 100 µM. For the same compound, the TGI with SNB-19 CNS was 64 µM; in the assay on RXF 393 renal it was 32.7 µM; in the assay with OVCAR-5 ovarian, greater than 100 µM; in the assay with DU-145 prostate, greater than 100 µM.
`CCOC(=O)c1ccc(-c2ccc(Cl)cc2)[nH]1`: the TGI with HS 578T breast, with SF-295 CNS, in the assay on UACC-62 melanoma, in the assay with SN12C renal, in the assay with SNB-19 CNS and with OVCAR-5 ovarian was greater than 10 µM throughout. This compound also registered a TGI in the assay on DU-145 prostate greater than 10 µM.
Turning to `CN1CCCOC(c2ccc(Cl)cc2)O1` (stereo not given), the TGI with MDA-MB-231 breast, with PC-3 prostate, with SF-295 CNS, in the assay with MCF7 breast, in the assay on UACC-62 melanoma and with SN12C renal was greater than 100 µM each time. Further, the TGI in the assay with SNB-19 CNS, in the assay with RXF 393 renal, in the assay with OVCAR-5 ovarian and in the assay on DU-145 prostate was greater than 100 µM throughout.
Take `CCOC(=O)CCC1(CCC(=O)OCC)CCCCCCCCC(CCC(=O)OCC)(CCC(=O)OCC)C(=O)C1=O`: the TGI in the assay with HS 578T breast, with PC-3 prostate, in the assay with SF-295 CNS, in the assay on MCF7 breast, in the assay on UACC-62 melanoma and in the assay with SN12C renal was greater than 100 µM each time. Further, the TGI with SNB-19 CNS, in the assay with OVCAR-5 ovarian and with DU-145 prostate was greater than 100 µM throughout.
With `Cc1n[n+](Cc2ccccc2)c2sc(N)nn12`, the TGI was greater than 100 µM with HS 578T breast; greater than 100 µM in the assay on PC-3 prostate; greater than 100 µM in the assay on SF-295 CNS; greater than 100 µM with MCF7 breast; 38.5 µM in the assay with UACC-62 melanoma; greater than 100 µM in the assay on SN12C renal. Besides, the TGI with SNB-19 CNS, with RXF 393 renal, in the assay on OVCAR-5 ovarian and in the assay with DU-145 prostate was greater than 100 µM in each case.
With `CCOC(=O)CCC(NC(=O)c1ccc(NCc2ccc3nc(-c4ccccc4)c(Cl)nc3c2)cc1)C(=O)OCC` (stereo not given), the TGI in the assay with SF-295 CNS, in the assay with SN12C renal, in the assay on SNB-19 CNS, in the assay with RXF 393 renal and in the assay on OVCAR-5 ovarian was greater than 100 µM each time.
As for `COC(=O)N[C@H](C(=O)NC(OCc1ccccc1)C1COC(C)(C)O1)C(C)O[Si](C)(C)C(C)(C)C` (stereo not given in full), the TGI in the assay on HS 578T breast, in the assay on PC-3 prostate, in the assay on MCF7 breast, in the assay with SNB-19 CNS, with RXF 393 renal and in the assay with OVCAR-5 ovarian was greater than 100 µM each time. In the assay on DU-145 prostate, this compound yielded a TGI greater than 100 µM.
For `COc1cccc(-c2nc(-c3cnccn3)n(C/C=C/c3ccccc3)n2)c1`, the TGI in the assay with HS 578T breast, with PC-3 prostate, with SF-295 CNS, with MCF7 breast, in the assay on UACC-62 melanoma and in the assay with SN12C renal was greater than 10 µM throughout. For the same compound, the TGI in the assay on SNB-19 CNS and with OVCAR-5 ovarian was greater than 10 µM each time.
As to `CCOC(=O)C(NC(=O)c1ccccc1)(N1CCN(c2cc3c(cc2F)c(=O)c(C(=O)O)cn3C2CC2)CC1)C(F)(F)F` (stereo not given), the TGI in the assay with HS 578T breast is 66.3 µM; in the assay on MDA-MB-231 breast it was 31 µM; in the assay on PC-3 prostate it was 60.2 µM; in the assay on SF-295 CNS, 87.9 µM; in the assay with UACC-62 melanoma, 47.6 µM; in the assay with SN12C renal, 79.3 µM. For the same compound, the TGI in the assay on SNB-19 CNS is greater than 100 µM; in the assay with RXF 393 renal, 36.5 µM; in the assay with OVCAR-5 ovarian, 40.5 µM; with DU-145 prostate, greater than 100 µM.

Values taken from PubChem BioAssay (NCI).
